Publication PMC8175350, “Drug repurposing screens identify chemical entities for the development of COVID-19 interventions” (Nature Communications, 2021)
Where “and” joins values, the source holds several entries; their conditions need not be identical. Equal entries are not always repeated. Where two headings read alike, the source gives them in different places.

Key:
[1] = system: HeLa-ACE2 cells; assay: Uninfected HeLa-ACE2 24 h live/dead cytotoxicity counter screen; type: cell-based, human; details: for cytotox: HeLa-ACE2, replicate wells n=1-3
[2] = as above; type: cell-based, human; details: human, uninfected HeLa-ACE2 cells, geomean; read-out: uninfected HeLa-ACE2 cytotoxicity CC50
[3] = system: Calu-3 cells; assay: cells; details: Homo sapiens, Calu-3, 48 h, read-out: Calu-3 cell count Sinf Average
[4] = system: SARS-CoV-2; type: cell-based
[5] = system: HeLa-ACE2 cells; assay: cells; details: Homo sapiens
[6] = system: SARS-CoV-2; assay: microbe, parasite or virus in culture; type: cell-based; details: for %infected: replicate wells n=1-3
[7] = system: Calu-3 cells
[8] = in vitro; details: human, Calu-3 uninfected cytotoxicity CC50 GeoMean
[9] = system: SARS-CoV-2; assay: microbe, parasite or virus in culture; type: cell-based; details: for %infected: Calu-3, replicate wells n=1, n=3
[10] = system: SARS-CoV-2; assay: microbe, parasite or virus in culture; type: cell-based; details: for SARS-CoV-2 % infected cells: 10 µM after 1 h infection; for TOA: HeLa-ACE2, replicate wells n=1-3
[11] = system: HeLa-ACE2 cells; assay: Total cell count in the HeLa-ACE2 TOA (time of addition) assay; type: cell-based, human; details: Homo sapiens, HeLa-ACE2; read-out: HeLa-ACE2 TOA cell count EC50 GeoMean
[12] = system: Calu-3 cells; details: read-out: Calu-3 cell count EC50 GeoMean

## Cc1cccc(/C=N/Nc2cc(N3CCOCC3)nc(OCCc3ccccn3)n2)c1 [Apilimod]
[1]; concentration log[M] -5
  cytotox: -15.1899 and -14.2304 and -15.9372 and -48.9424 and -19.1078 and -64.1429 and -33.3149 and -48.2124 and -41.1568
[1]; concentration log[M] -5.47712
  cytotox: -17.5527 and -25.9243 and -24.6903 and -15.9737 and -27.2862 and -50.2857 and -23.1323 and -17.6598 and -11.2347
[1]; concentration log[M] -5.95424
  cytotox: -21.6878 and -13.7145 and -16.6804 and -1.094 and -5.874 and -20.5714 and -18.1516 and -18.9599 and -15.1279
[1]; concentration log[M] -6.43136
  cytotox: -15.6962 and -19.7334 and -18.8274 and -9.409 and -6.171 and -21.1429 and -10.736 and -20.585 and -14.4605
[1]; concentration log[M] -6.90849
  cytotox: -10.4641 and -3.052 and -4.5417 and -0.2188 and 4.684 and -6.286 and -9.519 and -8.4507 and -3.003
[1]; concentration log[M] -7.38561
  cytotox: -11.3924 and -4.944 and -1.156 and 4.012 and 4.981 and -8.571 and -7.637 and -6.609 and -5.006
[1]; concentration log[M] -7.86273
  cytotox: 2.7 and 20.6793 and 5.12 and -0.3647 and 26.8401 and -1.429 and 8.744 and -0.2167 and 1.335
[1]; concentration log[M] -8.33985
  cytotox: 2.785 and -0.6449 and 6.028 and -5.1787 and 6.3197 and -9.571 and 2.435 and -18.4182 and -5.673
[1]; human, uninfected HeLa-ACE2 cells, 24 h
  HeLa-ACE2 uninfected cytotoxicity Sinf Average: -100%
[1]; read-out: HeLa-ACE2 uninfected cytotoxicity CC50 GeoMean
  CC50: > 27800 nM
[2]
  CC50 at 24 h: > 11500 nM
[3]
  Emax: 100%
[4]
  effect on viral replication in ALI-HBECs: did not
[5]; HeLa-ACE2, 24 h, read-out: HeLa-ACE2 cell count Sinf Average
  Emax: 100%
[5]; HeLa-ACE2, read-out: cell count in infection assay EC50, HeLa-ACE2, geomean, ^↑ = increasing dose-response curve
  EC50: > 2400 nM
[6]; HeLa-ACE2
  increase in EC50 from MOI = 0.09 to MOI = 2.2: 3.7 fold
[6]; HeLa-ACE2, geomean, read-out: SARS-CoV-2 EC50
  EC50: 11.3 nM
[6]; HeLa-ACE2, individual values of 9 independent experiments, read-out: EC50 (µM), Fig 1c
  EC50: 32 nM and 10 nM (2×) and 9 nM (3×) and 6 nM (2×) and 35 nM
[6]; HeLa-ACE2, concentration log[M] -5.61909
  %infected: -89.9366% and -97.9564% and -96.6883% and -98.5854% and -99.176% and -97.4315% and -98.076% and -88.0351% and -79.0377%
[6]; HeLa-ACE2, concentration log[M] -6.09621
  %infected: -87.038% and -98.4457% and -97.9148% and -98.877% and -98.5692% and -99.1064% and -97.5527% and -92.9215% and -87.0799%
[6]; HeLa-ACE2, concentration log[M] -6.57334
  %infected: -75.6225% and -96.1764% and -98.2769% and -98.0074% and -97.3703% and -99.7483% and -98.3422% and -89.6186% and -88.4431%
[6]; HeLa-ACE2, concentration log[M] -7.05046
  %infected: -82.6962% and -96.6541% and -97.5624% and -97.8117% and -96.6757% and -95.0973% and -96.8567% and -85.1569% and -75.3432%
[6]; HeLa-ACE2, concentration log[M] -7.52758
  %infected: -73.6156% and -84.2045% and -91.7586% and -85.2086% and -88.488% and -83.6715% and -88.6894% and -80.6843% and -66.0801%
[6]; HeLa-ACE2, concentration log[M] -8.0047
  %infected: -72.126% and -55.1215% and -37.7284% and -49.8809% and -50.2572% and -55.8328% and -53.8485%
[6]; Severe acute respiratory syndrome coronavirus 2, HeLa-ACE2, 24 h, read-out: HeLa-ACE2 CoV-2 Sinf Average
  Emax: 93%
[6]; Severe acute respiratory syndrome coronavirus 2, HeLa-ACE2, HeLa-ACE2, MOI 0.09, read-out: EC50
  EC50: 7.3 nM
[6]; Severe acute respiratory syndrome coronavirus 2, HeLa-ACE2, HeLa-ACE2, MOI 0.26, read-out: EC50
  EC50: 13.6 nM
[6]; Severe acute respiratory syndrome coronavirus 2, HeLa-ACE2, HeLa-ACE2, MOI 0.51, read-out: EC50
  EC50: 18.5 nM
[6]; Severe acute respiratory syndrome coronavirus 2, HeLa-ACE2, HeLa-ACE2, MOI 1.1, read-out: EC50
  EC50: 19.6 nM
[6]; Severe acute respiratory syndrome coronavirus 2, HeLa-ACE2, HeLa-ACE2, MOI 2.2, read-out: EC50
  EC50: 27 nM
[6]; Severe acute respiratory syndrome coronavirus 2, HeLa-ACE2, HeLa-ACE2, geomean, read-out: SARS-CoV-2 EC50
  EC50: 11 nM
[6]; Severe acute respiratory syndrome coronavirus 2, HeLa-ACE2, detail column, read-out: HeLa-ACE2 CoV-2 EC50 GeoMean
  EC50: < 6.39 nM
[6]; Severe acute respiratory syndrome coronavirus 2, HeLa-ACE2, of uninfected cells at the highest effective concentrations, read-out: maximal efficacy
  Emax: 85 to 90%
[6]; selectivity index, uninfected HeLa-ACE2 CC50 / SARS-CoV-2 EC50
  HeLa-ACE2 SI: > 4353.33
[7]
  uninfected Calu-3 CC50: > 22.719 ×÷ 1.728 (n=4) μM
[7]; human, 48 h
  Calu-3 uninfected cytotoxicity Sinf Average: -100%
[8]
  CC50 at 48 h: > 22700 nM
[9]; concentration log[M] -5.00096
  %infected: -58.2494% and -10.7285% and -2.646% and 11.3057% and -47.5294% and -51.353%
[9]; concentration log[M] -5.47808
  %infected: -10.4468% and 0.966% and 9.424% and 3.404% and -12.1011% and -29.1583%
[9]; concentration log[M] -6.08014
  %infected: 2.91% and 6.263% and 12.1167% and 11.1729% and -9.57% and -12.4389%
[9]; concentration log[M] -6.42922
  %infected: 21.192% and -5.066% and 8.086% and -7.067% and 14.7327% and 9.4894%
[9]; concentration log[M] -6.90623
  %infected: 6.025% and 8.588% and -2.01% and -3.119% and -8.7% and -28.761%
[9]; concentration log[M] -7.50836
  %infected: -9.733% and 6.842% and -19.0732% and 2.18% and 27.3224% and 13.8795%
[9]; concentration log[M] -7.85886
  %infected: -0.02646% and -15.3004% and -8.282% and -4.911% and 23.6525% and 32.9983%
[9]; concentration log[M] -8.33602
  %infected: -3.111% and 7.385% and 13.7435% and 0.4251% and 25.7217% and 25.5685%
[9]; Severe acute respiratory syndrome coronavirus 2, Calu-3, 48 h, read-out: Calu-3 CoV-2 Sinf Average
  Emax: 100%
[9]; read-out: Calu-3 CoV-2 EC50 GeoMean
  EC50: > 9380 nM
[9]; selectivity index, uninfected Calu-3 CC50 / SARS-CoV-2 EC50
  Calu-3 SI: > 2.42
[10]; 4:00:00 post infection
  SARS-CoV-2 % infected cells: 0.1789% and 0.1674% and 0.3723%
[10]; 5:00:00
  SARS-CoV-2 % infected cells: 0.5955% and 0.5104% and 0.3072%
[10]; 6:00:00
  SARS-CoV-2 % infected cells: 15.0073% and 13.3408% and 11.3931%
[10]; 7:00:00
  SARS-CoV-2 % infected cells: 26.4613% and 25.6934% and 26.6142%
[10]; 8:00:00
  SARS-CoV-2 % infected cells: 25.5362% and 27.3903% and 25.8074%
[10]; 10:00:00
  SARS-CoV-2 % infected cells: 26.7887% and 26.2316% and 26.281%
[10]; 11:00:00
  SARS-CoV-2 % infected cells: 30.9861% and 29.9763% and 30.0495%
[10]; 12:00:00
  SARS-CoV-2 % infected cells: 30.3761% and 30.6313% and 31.3141%
[10]; 24:00:00
  SARS-CoV-2 % infected cells: 17.8372% and 19.3932% and 18.4264%
[10]; HeLa-ACE2, 10 µM
  activity when treatment was initiated at 1 hpi: Loss of activity
[10]; concentration log[M] -5.61909
  TOA: -9.8778 and -6.262 and 0.3048 and -11.9309 and -26.5472 and -5.999 and -10.1028 and 0.08491 and -22.8314
[10]; concentration log[M] -6.09621
  TOA: 1.8452 and 11.477 and 4.5258 and -10.0091 and -14.0586 and -2.797 and -23.1834 and -27.6557 and -36.518
[10]; concentration log[M] -6.57334
  TOA: -3.994 and -3.466 and -5.79 and -4.984 and -4.372 and -2.992 and -21.4509 and 1.122 and -26.1046
[10]; concentration log[M] -7.05046
  TOA: -6.181 and -4.5978 and -2.954 and -15.6715 and -7.849 and -0.2917 and -3.649 and -3.511 and -18.2837
[10]; concentration log[M] -7.52758
  TOA: 6.077 and -0.625 and 10.6098 and -1.822 and 4.214 and -1.579 and 5.171 and 1.731 and -77.382
[10]; concentration log[M] -8.0047
  TOA: 2.779 and 3.019 and 8.825 and -4.236 and -3.9816 and -0.9799 and 1.304 and -2.325 and -36.3674
[10]; concentration log[M] -8.48182
  TOA: 7.953 and 7.587 and 8.026 and -5.856 and -0.7172 and 2.883 and 9.017 and -1.346 and -21.1061
[10]; concentration log[M] -8.95894
  TOA: 0.4128 and 0.7327 and 13.745 and -6.2 and 7.839 and 1.622 and 7.708 and 2.325 and 1.297
[10]; Severe acute respiratory syndrome coronavirus 2, HeLa-ACE2, HeLa-ACE2, fixed 10 hpi, geomean, read-out: CoV-2 TOA EC50
  EC50: > 2400 nM
[10]; read-out: HeLa-ACE2 TOA CoV-2 EC50 GeoMean
  EC50: > 9610 nM
[11]
  EC50: > 9610 nM
[12]
  EC50: > 9980 nM
